# Results published in ChEMBL document CHEMBL4373744, “Modifying the lipophilic part of phenylthiazole antibiotics to control their drug-likeness” (Eur J Med Chem, 2020).
# The source made the active and inactive calls. No cut-off for these calls is given here.
# How the values were obtained:
# Staphylococcus aureus [1] = assay: microbe, parasite or virus in culture; settings: NRS 107
# Description: Antimicrobial activity against methicillin-sensitive Staphylococcus aureus NRS 107 by broth liquid microdilution method
# Enterococcus faecalis = assay: microbe, parasite or virus in culture; settings: ATCC 51299
# Staphylococcus aureus [2] = assay: Antimicrobial activity against vancomycin-resistant Staphylococcus aureus 12 by broth liquid microdilution method; type: functional
# Staphylococcus aureus [3] = assay: microbe, parasite or virus in culture; settings: NRS 385
# Description: Antimicrobial activity against methicillin-resistant Staphylococcus aureus NRS 385 by broth liquid microdilution method
# Streptococcus pneumoniae [4] = assay: Antimicrobial activity against methicillin-resistant Streptococcus pneumoniae ATCC 700677 by broth liquid microdilution method; type: functional
# Staphylococcus aureus [5] = assay: Antimicrobial activity against vancomycin-resistant Staphylococcus aureus 10 by broth liquid microdilution method; type: functional
# Listeria monocytogenes = assay: Antimicrobial activity against Listeria monocytogenes ATCC 19111 by broth liquid microdilution method; type: functional
# Streptococcus pneumoniae [6] = assay: Antimicrobial activity against cephalosporin-resistant Streptococcus pneumoniae ATCC 51916 by broth liquid microdilution method; type: functional
# [7] = test system: Staphylococcus epidermidis; assay: Antimicrobial activity against methicillin-resistant Staphylococcus epidermidis NRS101 by broth liquid microdilution method; type: functional
# Staphylococcus aureus [8] = assay: microbe, parasite or virus in culture; settings: NRS384
# Description: Antimicrobial activity against methicillin-resistant Staphylococcus aureus NRS384 by broth liquid microdilution method
# Staphylococcus aureus [9] = assay: microbe, parasite or virus in culture; settings: ATCC 6538
# Description: Antimicrobial activity against methicillin-sensitive Staphylococcus aureus ATCC 6538 by broth liquid microdilution method
# Staphylococcus aureus [10] = assay: microbe, parasite or virus in culture; settings: NRS123
# Description: Antimicrobial activity against methicillin-resistant Staphylococcus aureus NRS123 by broth liquid microdilution method
# Staphylococcus aureus [11] = assay: microbe, parasite or virus in culture; settings: NRS119
# Description: Antimicrobial activity against methicillin-resistant Staphylococcus aureus NRS119 by broth liquid microdilution method
# Enterococcus faecium = assay: Antimicrobial activity against vancomycin-resistant Enterococcus faecium ATCC 700221 by broth liquid microdilution method; type: functional
# Staphylococcus aureus [12] = assay: microbe, parasite or virus in culture; settings: NRS 386
# Description: Antimicrobial activity against methicillin-resistant Staphylococcus aureus NRS 386 by broth liquid microdilution method
# Staphylococcus aureus [13] = assay: Antibiofilm activity against methicillin-resistant Staphylococcus aureus USA300 at 2 times MIC incubated for 24 hrs by crystal violet staining based assay relative to control; type: functional
# Escherichia coli [14] = assay: Antimicrobial activity against Escherichia coli BW25113 by broth liquid microdilution method; type: functional
# Staphylococcus aureus [15] = assay: Antibiofilm activity against methicillin-resistant Staphylococcus aureus USA300 at 4 times MIC incubated for 24 hrs by crystal violet staining based assay relative to control; type: functional
# Staphylococcus aureus [16] = assay: Bactericidal activity against methicillin-resistant Staphylococcus aureus USA400 assessed as 3 log reduction in number of colony forming units at 5 times MIC incubated for 12 hrs by aliquots transfer to tryptic soy agar and grown for 18 to 20 hrs by Time-kill assay; type: functional, organism-based
# Escherichia coli [17] = assay: Antimicrobial activity against Escherichia coli JW55031 harboring deltatolC mutant by broth liquid microdilution method; type: functional
# Staphylococcus aureus [18] = assay: Antimicrobial activity against methicillin-resistant Staphylococcus aureus USA400 infected in mouse J774 cells assessed as reduction in […] bacterial count at 2 to 4 times MIC incubated for 24 hrs; type: functional, organism-based
# Staphylococcus aureus [19] = assay: Bactericidal activity against methicillin-resistant Staphylococcus aureus USA400 assessed as 3 log reduction in number of colony forming units at 5 times MIC incubated for 10 hrs by aliquots transfer to tryptic soy agar and grown for 18 to 20 hrs by Time-kill assay relative to control; type: functional; set-up: scale not given: the % may be the effect or the level left
# Staphylococcus aureus [20] = assay: Bactericidal activity against methicillin-resistant Staphylococcus aureus USA400 assessed as reduction in number of colony forming units at 5 times MIC incubated for 24 hrs by aliquots transfer to tryptic soy agar and grown for 18 to 20 hrs by Time-kill assay; type: functional, organism-based
# Staphylococcus aureus [21] = assay: Bactericidal activity against methicillin-resistant Staphylococcus aureus USA400 assessed as 3 log reduction in number of colony forming units at 5 times MIC incubated for 10 hrs by aliquots transfer to tryptic soy agar and grown for 18 to 20 hrs by Time-kill assay; type: functional, organism-based
# [22] = Tmax in Sprague-Dawley rat at 50 mg/kg, po via gavage administered as a single dose measured upto 24 hrs by LC/MS/MS analysis; type: ADME, organism-based; settings: in vivo
# Staphylococcus aureus [23] = assay: Antimicrobial activity against methicillin-resistant Staphylococcus aureus USA400 infected in mouse J774 cells assessed as reduction in […] bacterial count at 4 times MIC incubated for 24 hrs relative to control; type: functional; set-up: scale not given: the % may be the effect or the level left
# J774 = assay: Cytotoxicity against mouse J774 cells assessed as reduction in cell viability at 4 to 8 ug/ml incubated for 24 hrs by MTS assay; type: cell-based; settings: j774, 24 h
# [24] = Aqueous solubility of compound in pH 6.8 phosphate buffer; type: physicochemical
# [25] = Cmax in Sprague-Dawley rat at 50 mg/kg, po via gavage administered as a single dose measured upto 24 hrs by LC/MS/MS analysis; type: ADME, organism-based; set-up: dose 50 mg/kg, route oral; settings: in vivo
# [26] = Volume of distribution in Sprague-Dawley rat at 50 mg/kg, po via gavage administered as a single dose measured upto 24 hrs by LC/MS/MS analysis; type: ADME, organism-based; settings: in vivo
# Staphylococcus aureus [27] = assay: Bactericidal activity against methicillin-resistant Staphylococcus aureus USA400 assessed as reduction in number of colony forming units at 5 times MIC incubated for 12 hrs by aliquots transfer to tryptic soy agar and grown for 18 to 20 hrs by Time-kill assay relative to control; type: functional; set-up: scale not given: the % may be the effect or the level left
# [28] = AUC in Sprague-Dawley rat at 50 mg/kg, po via gavage administered as a single dose measured upto 24 hrs by LC/MS/MS analysis; type: ADME, organism-based; set-up: time < 24 hr, dose 50 mg/kg, route oral; settings: in vivo
# Staphylococcus aureus [29] = assay: Antibiofilm activity against methicillin-resistant Staphylococcus aureus USA300 incubated for 24 hrs by crystal violet staining based assay; type: functional, organism-based
# [30] = Half life in Sprague-Dawley rat at 50 mg/kg, po via gavage administered as a single dose measured upto 24 hrs by LC/MS/MS analysis; type: ADME, organism-based; settings: in vivo
# [31] = Clearance in Sprague-Dawley rat at 50 mg/kg, po via gavage administered as a single dose measured upto 24 hrs by LC/MS/MS analysis; type: ADME, organism-based; settings: in vivo
# Staphylococcus aureus [32] = assay: Antimicrobial activity against methicillin-resistant Staphylococcus aureus USA400 infected in mouse J774 cells assessed as reduction in […] bacterial count at 2 times MIC incubated for 24 hrs relative to control; type: functional; set-up: scale not given: the % may be the effect or the level left
compound,measurement,setting,value
CC(=O)NC[C@H]1CN(c2ccc(N3CCOCC3)c(F)c2)C(=O)O1 [LINEZOLID],MBC,Staphylococcus aureus [1],64 µg/mL
same,MIC,Staphylococcus aureus [1],1 µg/mL
same,MBC,Enterococcus faecalis,16 µg/mL
same,MBC,Staphylococcus aureus [2],64 µg/mL
same,MIC,Staphylococcus aureus [2],1 µg/mL
same,MBC,Staphylococcus aureus [3],32 µg/mL
same,MIC,Staphylococcus aureus [3],1 µg/mL
same,MBC,Streptococcus pneumoniae [4],16 µg/mL
same,MBC,Staphylococcus aureus [5],> 64 µg/mL
same,MIC,Staphylococcus aureus [5],1 µg/mL
same,MBC,Listeria monocytogenes,16 µg/mL
same,MIC,Listeria monocytogenes,≤ 0.5 µg/mL
same,MBC,Streptococcus pneumoniae [6],32 µg/mL
same,MBC,[7],16 µg/mL
same,MIC,[7],1 µg/mL
same,MBC,Staphylococcus aureus [8],32 µg/mL
same,MIC,Staphylococcus aureus [8],1 µg/mL
same,MBC,Staphylococcus aureus [9],16 µg/mL
same,MIC,Staphylococcus aureus [9],1 µg/mL
same,MBC,Staphylococcus aureus [10],32 µg/mL
same,MIC,Staphylococcus aureus [10],1 µg/mL
same,MBC,Staphylococcus aureus [11],> 64 µg/mL
same,MIC,Staphylococcus aureus [11],64 µg/mL
same,MBC,Enterococcus faecium,16 µg/mL
same,MIC,Enterococcus faecium,1 µg/mL
same,MBC,Staphylococcus aureus [12],64 µg/mL
CN[C@H](CC(C)C)C(=O)N[C@H]1C(=O)N[C@@H](CC(N)=O)C(=O)N[C@H]2C(=O)N[C@H]3C(=O)N[C@H](C(=O)N[C@H](C(=O)O)c4cc(O)cc(O)c4-c4cc3ccc4O)[C@H](O)c3ccc(c(Cl)c3)Oc3cc2cc(c3O[C@@H]2O[C@H](CO)[C@@H](O)[C@H](O)[C@H]2O[C@H]2C[C@](C)(N)[C@H](O)[C@H](C)O2)Oc2ccc(cc2Cl)[C@H]1O [VANCOMYCIN],MBC,Staphylococcus aureus [1],2 µg/mL
same,MBC,Enterococcus faecalis,64 µg/mL
same,MIC,Enterococcus faecalis,32 µg/mL
same,Activity,Staphylococcus aureus [13],9%
same,MBC,Staphylococcus aureus [2],64 µg/mL
same,MIC,Staphylococcus aureus [2],64 µg/mL
same,MBC,Staphylococcus aureus [3],1 µg/mL
same,MIC,Streptococcus pneumoniae [4],2 µg/mL
same,MBC,Staphylococcus aureus [5],> 64 µg/mL
same,MIC,Staphylococcus aureus [5],64 µg/mL
same,MIC,Escherichia coli [14],≤ 0.5 µg/mL
same,MIC,Listeria monocytogenes,1 µg/mL
same,MIC,Streptococcus pneumoniae [6],1 µg/mL
same,Activity,Staphylococcus aureus [15],16%
same,MBC,[7],2 µg/mL
same,Activity,Staphylococcus aureus [16],Active
same,MIC,Escherichia coli [17],≤ 0.5 µg/mL
same,MBC,Staphylococcus aureus [8],1 µg/mL
same,Activity,Staphylococcus aureus [18],inactive
same,MBC,Staphylococcus aureus [9],2 µg/mL
same,MBC,Staphylococcus aureus [10],1 µg/mL
same,MBC,Staphylococcus aureus [11],2 µg/mL
same,MBC,Enterococcus faecium,> 64 µg/mL
same,MIC,Enterococcus faecium,> 64 µg/mL
same,MBC,Staphylococcus aureus [12],1 µg/mL
C/C(=N\NC(=N)N)c1sc(-c2ccc(C#CCCN3CCSC3)cc2)nc1C,MBC,Staphylococcus aureus [1],16 µg/mL
same,MIC,Staphylococcus aureus [1],8 µg/mL
same,MBC,Enterococcus faecalis,32 µg/mL
same,MIC,Enterococcus faecalis,8 µg/mL
same,MBC,Staphylococcus aureus [2],32 µg/mL
same,MIC,Staphylococcus aureus [2],4 µg/mL
same,MBC,Staphylococcus aureus [3],16 µg/mL
same,MIC,Staphylococcus aureus [3],4 µg/mL
same,MBC,Streptococcus pneumoniae [4],32 µg/mL
same,MIC,Streptococcus pneumoniae [4],8 µg/mL
same,MBC,Staphylococcus aureus [5],32 µg/mL
same,MIC,Staphylococcus aureus [5],4 µg/mL
same,Activity,Staphylococcus aureus [19],99.9%
same,MIC,Escherichia coli [14],64 µg/mL
same,MBC,Listeria monocytogenes,32 µg/mL
same,MIC,Listeria monocytogenes,4 µg/mL
same,MBC,Streptococcus pneumoniae [6],32 µg/mL
same,MIC,Streptococcus pneumoniae [6],8 µg/mL
same,MBC,[7],8 µg/mL
same,MIC,[7],2 µg/mL
same,MIC,Escherichia coli [17],16 µg/mL
same,MBC,Staphylococcus aureus [8],32 µg/mL
same,MIC,Staphylococcus aureus [8],4 µg/mL
same,Activity,Staphylococcus aureus [20],Active
same,MBC,Staphylococcus aureus [9],32 µg/mL
same,MIC,Staphylococcus aureus [9],4 µg/mL
same,MBC,Staphylococcus aureus [10],32 µg/mL
same,MIC,Staphylococcus aureus [10],4 µg/mL
same,MBC,Staphylococcus aureus [11],16 µg/mL
same,MIC,Staphylococcus aureus [11],4 µg/mL
same,MBC,Enterococcus faecium,16 µg/mL
same,MIC,Enterococcus faecium,4 µg/mL
same,MBC,Staphylococcus aureus [12],16 µg/mL
same,MIC,Staphylococcus aureus [12],4 µg/mL
C/C(=N\NC(=N)N)c1sc(-c2ccc(C#CCCN3CCC3)cc2)nc1C,Activity,Staphylococcus aureus [21],Active
same,MBC,Staphylococcus aureus [1],8 µg/mL
same,MIC,Staphylococcus aureus [1],2 µg/mL
same,Tmax,[22],1 h
same,Activity,Staphylococcus aureus [23],99.7%
same,Activity,J774,Non-Toxic
same,MBC,Enterococcus faecalis,16 µg/mL
same,MIC,Enterococcus faecalis,4 µg/mL
same,solubility,[24],500 µM
same,Activity,Staphylococcus aureus [13],31%
same,MBC,Staphylococcus aureus [2],16 µg/mL
same,MIC,Staphylococcus aureus [2],4 µg/mL
same,MBC,Staphylococcus aureus [3],4 µg/mL
same,MIC,Staphylococcus aureus [3],4 µg/mL
same,Cmax,[25],15600 ng/mL
same,MBC,Streptococcus pneumoniae [4],8 µg/mL
same,MIC,Streptococcus pneumoniae [4],2 µg/mL
same,MBC,Staphylococcus aureus [5],8 µg/mL
same,MIC,Staphylococcus aureus [5],2 µg/mL
same,MIC,Escherichia coli [14],> 64 µg/mL
same,MBC,Listeria monocytogenes,8 µg/mL
same,MIC,Listeria monocytogenes,4 µg/mL
same,Vd,[26],1.29 L
same,Activity,Staphylococcus aureus [27],100%
same,MBC,Streptococcus pneumoniae [6],8 µg/mL
same,MIC,Streptococcus pneumoniae [6],2 µg/mL
same,Activity,Staphylococcus aureus [15],41%
same,AUC at 24 h,[28],162 µg·h/mL
same,MBC,[7],4 µg/mL
same,MIC,[7],1 µg/mL
same,Activity,Staphylococcus aureus [29],Dose-dependent effect
same,half-life,[30],2.9 h
same,CL/F,[31],5.17 mL/min
same,MIC,Escherichia coli [17],32 µg/mL
same,MBC,Staphylococcus aureus [8],4 µg/mL
same,MIC,Staphylococcus aureus [8],2 µg/mL
same,MBC,Staphylococcus aureus [9],8 µg/mL
same,MIC,Staphylococcus aureus [9],2 µg/mL
same,MBC,Staphylococcus aureus [10],4 µg/mL
same,MIC,Staphylococcus aureus [10],2 µg/mL
same,MBC,Staphylococcus aureus [11],8 µg/mL
same,MIC,Staphylococcus aureus [11],2 µg/mL
same,Activity,Staphylococcus aureus [32],98%
same,MBC,Enterococcus faecium,8 µg/mL
same,MIC,Enterococcus faecium,2 µg/mL
same,MBC,Staphylococcus aureus [12],8 µg/mL
same,MIC,Staphylococcus aureus [12],2 µg/mL
